# Measurements reported in patent US8754056B2, “Enhancing vessel lesion homing and repair potential of stem cells” (University of Florida Research Foundation, Inc., priority 2008, dated 2014).
# [PMO-N] = phosphorodiamidate morpholino subunit (N: the base)
# Key:
# [1] = test system: human peripheral blood-derived CD34+ cells; experiment: NO production by DAF-FM fluorescence imaging; assay type: cell-based; settings: for NO-release by SDF-1 in anti-TGFβ-PMO treated cells with inhibitor / NO generation in response to SDF-1 after PMO treatment: diabetic CD34+ cells; for NO generation in response to SDF-1 after PMO treatment / NO-release in response to SDF-1 after PMO pre-treatment: PMO 40 μg/mL; for NO-release in response to SDF-1 after PMO pre-treatment: n=3
# Method: Human CD34^+ EPCs were incubated overnight with either control-PMO or anti-TGF-β-PMO at a concentration of 40 μg/mL. NO production was quantified in human peripheral blood-derived CD34^+ cells using NO-sensitive cell-permeant fluorescent dye DAF-FM. CD34^+ EPCs were loaded with 20 μM DAF-FM diacetate (Invitrogen) in 500 μl, of DPBS (MediaTech. Inc.) with glucose (1 mg/mL) and L-arginine (1 mM). […] Pharmacological inhibitors were added 30 min before the addition of DAF-FM. […] Cells were washed (4×) and 75 μL of cell suspension was placed in the coverslip-bottomed dish for fluorescence imaging. Fluorescent images were obtained using a computer-controlled monochromator excitation light source (TILL Polychrome II, TILL-Photonics, Martinsried, Germany) and a cooled CCD camera with exposure control (SensiCam, Till-photonics). During excitation at 488 nm with 50 ms of exposure time, emission at 510 nm was collected by the camera at 2×2 binning and images were acquired by Till-Vision software (Till Photonics, Martinsried, Germany). Images were corrected for background and maximum fluorescence intensity in individual cells was quantified in terms of arbitrary fluorescence units using Till-Vision software. Changes in fluorescence with different treatments were expressed as percent change with respect to cells that were used as time/vehicle control i.e. cells received no treatments but loaded with DAF-FM. Up to 75 numbers of cells were imaged per sample/donor and ‘n’ denotes number of donors used.
# human CD34+ cells = experiment: Survival in the absence of growth factors and later proliferation of CD34+ cells; assay type: cell-based
# Method: Two discrete cord blood stem cell populations, lin^−CD34^+CD38^+ (FIG. 5A) or lin^−CD34^+CD38^− (FIG. 5B), in addition to lin^−CD34^+ cells from peripheral blood and bone marrow (FIG. 6A) were either treated with PMO containing medium or not. After 5 days, all cells received growth factors (Tpo, SCF, IL-3, IL-6) to detect live, growth factor responsive cells and their proliferative potential after 14 days was determined. By day 14, cells exposed to 20-300 μg/mL of anti-TGF-β-PMO typically formed macro colonies (>100,000 cells) after the addition of growth factors (FIG. 5).
# Human cord blood and bone marrow CD34^+ EPCs were purchased from AllCells (Emeryville, Calif.) as positively selected lin^−, magnetic bead-purified frozen cell populations that were >95% CD34^+ cells by FACS analysis. Cells were thawed in a 37° C. water bath, diluted in excess IMDM 10% FBS, pelleted by centrifugation (300×g for 10 min), washed by centrifugation one additional time and, finally, counted using a hemocytometer. Viability, as determined by trypan blue dye exclusion, was routinely >95% after thaw and washes.
# Further purification was carried out prior to survival and proliferation studies. Cells were adjusted to 5×10^5/mL in phosphate-buffered saline (PBS) containing 2% (v/v) fetal bovine serum (FBS) and incubated with single murine antibody controls and murine anti-CD34-PE, anti-CD45-PE-Cy5 and anti-CD38-APC. Just prior to cell sorting, propidium iodide (2 μg/mL) was added to detect non-viable cells. CD34^+, CD45^mid cells (HSCs are CD45^mid expressing and can be clearly separated from contaminating lymphocytes, which are CD45^high expressing) and CD38^+/− cells were directly sorted into 96-well round bottom plates (10±2 cells/well) containing IMDM, 10% horse serum, 10% FBS, 100 units/mL of penicillin, 10 μg/mL streptomycin, 20 mM 1-glutamine and 1 μM hydrocortisone±PMOs. At day 5, a hematopoietic growth factor cocktail (Hgf-cocktail) consisting of 20 ng/mL thrombopoietin, 50 ng/mL stem cell factor, 50 ng/mL interleukin-3 and 20 ng/mL interleukin-6, all purchased from PeproTech, N.J., was added to the wells. Cells were followed by daily direct light microscopy (×200) to assess cell proliferation. Cells that proliferated in response to growth factors were scored as cells that survived after the 5-day period in the absence of growth factors. […]
# CD34^+ EPCs were isolated from cord blood, human bone marrow and peripheral blood as described above and sorted 10 cells per well in a 96 well plate in either the presence or absence of growth factors and in presence or absence of anti-TGFβ-PMO. […] This incubation period was previously determined by measuring the uptake of fluorescein isothyocyanate (FITC)-labelled PMOs in HSCs.
# CD34+ EPCs = experiment: Modified Boyden chamber migration to SDF-1 after PMO treatment; assay type: cell-based, human; settings: SDF-1 100 nM
# CXCR4 = experiment: Real-time PCR of CXCR4 mRNA in CD34+ EPCs; assay type: cell-based, human; settings: normalized to β-actin
# Method: (§1) Total mRNA from CD34 cells was isolated by using the Total RNA Mini Kit (Bio-Rad, Hercules, Calif.). The mRNA was transcribed by using an iScript cDNA Synthesis Kit (BioRad), and real-time PCR was performed using primers for CXCR4, CXCR7, or beta actin as per manufacturer's instructions (Ambion, Austin, Tex.). Real-time PCR was performed on 7500 Fast Real-Time PCR system for 40 cycles and all reactions were performed in triplicate.
# CXCR7 = experiment: Real-time PCR of CXCR7 mRNA in CD34+ EPCs; assay type: cell-based, human; settings: non-diabetic CD34+ cells, P<0.001
# Method: as §1
# murine HSCs = experiment: CNV laser injury model, homing of adoptively transferred GFP+ murine HSCs; assay type: in vivo, mice; settings: overnight pre-treatment of HSCs, vs control-PMO (p<0.05) or medium alone
# human CD34+ EPCs = experiment: Retinal ischemia-reperfusion injury model, incorporation of injected human CD34+ EPCs; assay type: in vivo, mice; settings: for repair of acellular capillaries: diabetic CD34+ cells
# Method: Mice (n=20) were kept under inhalation anaesthesia (isoflurane vapor) during induction of ischemia. The anterior chamber of the eye was cannulated with a 30-gauge needle attached to an infusion line of sterile saline, and the eye was subjected to 2 h of hydrostatic pressure (80-90 mmHg, measured by TonoPen; Medtronic Solan, Jacksonville, Fla.). […] The contralateral eye served as a control.
# Seven days after the insult, at which time retinal capillary damage was appreciable,^14,15 the animals were injected intravitreally with isolated human CD34^+ EPCs pre-treated with either […] or control-PMO. After 48 h the animals were euthanized, the eyes were enucleated and the neural retinas were isolated by dissection. The retinas were permeabilized as described above, and reacted with rhodamine-conjugated R. communis agglutinin I. To assess the location of the injected human CD34^+ EPCs, retinas were further incubated with mouse monoclonal anti-human nuclear antigen (Chemicon) followed by secondary staining with FITC-conjugated goat-anti-mouse IgG antibodies (Chemicon). Confocal images of six random fields were taken and fluorescence intensity in each 100 μm^2 was analysed using ImageJ software. Appropriate non-immune antibodies, as well as incubation without primary antibody, were used to determine background and non-specific antibody binding.
# Normal MPB CD34+CD45+ = experiment: Surface antigen expression after PMO treatment, normal cells; assay type: cell-based, human
# Diabetic PB CD34+CD45+ = experiment: Surface antigen expression after PMO treatment, diabetic cells; assay type: cell-based, human
# [2] = non-diabetic (normal) CD34+ EPCs
Molecule,CXCR4 mRNA expression (CXCR4; diabetic CD34+ cells),CXCR4 mRNA expression (CXCR4; [2]),NO generation in response to SDF-1 after PMO treatment ([1]; n=4),NO-release in response to SDF-1 after PMO pre-treatment ([1]; non-diabetic CD34+ cells),repair of acellular capillaries (human CD34+ EPCs),CD14 % of cells (Normal MPB CD34+CD45+),CD38 % of cells (Normal MPB CD34+CD45+),CD105 % of cells (Normal MPB CD34+CD45+),CXCR4 % of cells (Normal MPB CD34+CD45+),VEGFR-2 % of cells (Normal MPB CD34+CD45+),CD14 % of cells (Diabetic PB CD34+CD45+),CD38 % of cells (Diabetic PB CD34+CD45+),CD105 % of cells (Diabetic PB CD34+CD45+),CXCR4 % of cells (Diabetic PB CD34+CD45+),VEGFR-2 % of cells (Diabetic PB CD34+CD45+),also measured
"SDF-1: the principal stem/progenitor cell homing factor, used as chemotaxis effector and NO release stimulus",–,–,–,–,–,–,–,–,–,–,–,–,–,–,–,"increase in NO generation vs time-control ([1]; non-diabetic CD34+ cells, SDF-1 100 nM, n=4): 45±4%"
O=c1cc(N2CCOCC2)oc2c(-c3ccccc3)cccc12 [LY294002],–,–,–,–,–,–,–,–,–,–,–,–,–,–,–,"NO release by SDF-1 after inhibitor pre-treatment ([1]; non-diabetic CD34+ cells, SDF-1 100 nM, inhibitor 20 μM): 12±3%"
c1cc(CN2CCCNCCNCCCNCC2)ccc1CN1CCCNCCNCCCNCC1 [AMD3100],–,–,–,–,–,–,–,–,–,–,–,–,–,–,–,"NO-release by SDF-1 in anti-TGFβ-PMO treated cells with inhibitor ([1]; inhibitor 10 μM): 28±2%; NO release by SDF-1 after inhibitor pre-treatment ([1]; non-diabetic CD34+ cells, SDF-1 100 nM, inhibitor 10 μM): 3±2%"
"anti-TGF-β-PMO: phosphorodiamidate morpholino antisense oligomer, 5′ GAG GGC GGC ATG III GAG GC 3′ (SEQ ID NO: 2), AVI BioPharma sequence ID#0-1-01067 (antisense GAGGGCGGCATGNNNGAGGC; all [PMO-N], the base at N not given here; further chemistry not fully specified)",significantly increased,down-regulation,69±7%,54±4%,robust reparative response,73.3 % of cells,82.3 % of cells,62.9 % of cells,85.3 % of cells,56.5 % of cells,62.4 % of cells,94.2 % of cells,51.7 % of cells,72.7 % of cells,62.4 % of cells,"cell survival (human CD34+ cells; 40 μg/mL, compared with other concentrations): greatest cell survival; proliferation vs control-PMO (human CD34+ cells; BM-derived cells): increased proliferation; macro colony size by day 14 after addition of growth factors (human CD34+ cells; cord blood cells, 20-300 μg/mL, growth factors added after 5 days): > 100,000 cells; proliferation vs control-PMO (human CD34+ cells; peripheral blood CD34+ cells from diabetics and age- and sex-matched controls): enhanced proliferation; migration to SDF-1 vs control-PMO (CD34+ EPCs; diabetic CD34+ EPCs, P<0.05): enhanced migration; migration to SDF-1 vs control-PMO (CD34+ EPCs; non-diabetic CD34+ EPCs, P<0.01): enhanced migration; CXCR7 mRNA expression (CXCR7): increased; numbers of GFP+ HSCs recruited to the laser injury site (murine HSCs): substantial increase; increase in incorporation of cells to injured retinal capillaries vs control-PMO (human CD34+ EPCs; FITC immunoreactivity per 100 μm^2 area, P<0.001): 2.5 fold; homing to areas of ischemic injury (human CD34+ EPCs; pre-treated EPCs injected intravitreally, vs control-PMO): profound homing"
"control-PMO: control morpholino oligomer, 5′ CGTTCTGATAGCTGTACCTC 3′ (SEQ ID NO: 1), AVI BioPharma sequence ID#0-1-0-555 (antisense CGTTCTGATAGCTGTACCTC; all phosphorodiamidate morpholino (PMO)) [reference compound]",not changed,increased,9.2%,60±5%,essentially no repair,69.3 % of cells,79.9 % of cells,71.0 % of cells,88.5 % of cells,62.9 % of cells,59.3 % of cells,92.2 % of cells,58.8 % of cells,74.1 % of cells,59.3 % of cells,–
pertussis toxin,–,–,–,–,–,–,–,–,–,–,–,–,–,–,–,"NO-release by SDF-1 in anti-TGFβ-PMO treated cells with inhibitor ([1]; inhibitor 100 ng/mL): 16±3%; NO release by SDF-1 after inhibitor pre-treatment ([1]; non-diabetic CD34+ cells, SDF-1 100 nM, inhibitor 100 ng/ml): 20±9%"
